In patent US10966995B2, “Use of secoisolariciresinol diglucosides (SDGS) and related compounds for protection against radiation and chemical damage” (THE TRUSTEES OF THE UNIVERSITY OF PENNSYLVANIA, priority 2014, dated 2021):

Columns and labels:
[1] = test system: murine primary lung cells (epithelial cells, endothelial cells and fibroblasts); test: Clonogenic survival of irradiated primary lung cells; assay type: cell-based, mouse
Procedure: (§1) Fibroblasts and endothelial cells were isolated from C57/bl6 mouse. For fibroblast isolation, mouse lungs were harvested, minced, and incubated with dispase (2 mg/ml) for 45 minutes. Pieces were plated out and fibroblasts were cultured as described previously and used between passages 3 and 10. Pulmonary microvascular endothelial cells (PMVEC) were isolated from murine lungs as described previously. Briefly, freshly harvested mouse lungs were treated with collagenase followed by isolation of cells by adherence to magnetic beads coated with mAb to platelet endothelial cell adhesion molecule (PECAM). Epithelial cells (C10) cells were originally derived from a normal BALB/c mouse lung explant and are non-tumorigenic, contact-inhibited, and have alveolar type 2 cell features at early passage.
Exponentially growing cells were plated as single cells and incubated overnight. Cells were treated with various doses of the lignan SDG (10-50 μM) 6 h prior to irradiation (2, 4, 6 and 8 Gy). Lignan dose was selected based on animal studies to be within the physiological levels reached in the blood circulation when 10% Flaxseed is ingested. Cells were irradiated with a Mark 1 cesium (Cs-137) irradiator (J. L. Shepherd, San Fernando, Calif.) at a dose rate of 1.7 Gy/min Colonies were stained and counted 10 to 15 days after irradiation and surviving fraction was calculated.

[2] = test system: murine primary lung cells (epithelial, endothelial and WT fibroblasts); test: Alkaline comet assay (DNA SSBs) in irradiated primary lung cells; assay type: cell-based, mouse; conditions: 2 Gy
Procedure: as §1
Exponentially growing cells were cultured and treated with SDG (50 μM) at different time intervals prior to irradiation (2 Gy). Cells were processed for comet assay as per manufacturer's instructions (Trevigen, Gaithersburg, Md.). […] At least 150 cells were scored per group. Visual analysis of cells and comet tail length was measured using Comet Image Analysis software (Comet Assay IV, Perceptive Instruments Ltd, Haverhill, UK) Images were captured on an Olympus IX51 fluorescence microscope using a monochrome CCD FireWire camera.

[3] = test system: murine primary lung epithelial cells; test: γ-H2AX foci immunostaining, epithelial cells; assay type: cell-based, mouse; conditions: SDG 50 μM 6 h prior IR; 2 Gy; irradiated control 46.7% at 30 min
Procedure: as §1
For immunostaining of γ-H2AX, cells were plated on glass coverslips (5,000 cells/coverslip), pre-treated (6 h) with 50 μM SDG and irradiated (2 Gy). At desired time interval, cells were fixed (4% para-formaldehyde), washed and blocked with PBST (PBS+0.1% TritonX-100 containing 5% goat serum, 1% BSA). Cells were incubated with γ-H2AX primary antibody (1:200) overnight at 4° C. followed by washing with PBST (3×5 min) and incubation with secondary antibody (Alexa Fluor® 488, Invitrogen, Calif., USA) for 1 hr at RT. Nuclei were counterstained with DAPI and visualized under fluorescence microscope.

[4] = test system: mouse lung epithelial cells; test: Apoptosis detection by western blotting (Bax, Bcl-2, cleaved caspase-3, cleaved PARP); assay type: cell-based; conditions: SDG pre-treated vs irradiated cells
Procedure: Apoptosis was determined in mouse lung epithelial cells by levels of Bax (an apoptosis promoter), Bcl-2 (an apoptosis inhibitor), cleaved caspase-3, and cleaved poly (adenosine diphosphate-ribose) polymerase (PARP) seen using immunoblotting. Briefly, cells were lysed in PBS containing protease inhibitors. Immunoblot analysis of cell lysates was then performed using 10 well SDS 12% NuPAGE gel (Invitrogen, Carlsbad Calif.). Electrophoresis was performed at 200V for 1 hour. Transfer to PolyScreen PV transfer membrane (PerkinElmer Life Sciences, Boston, Mass.) was performed for 1 hour at 25 volts. Membrane was blocked overnight in 5% non-fat dry milk in phosphate buffered saline. The non-fat dry milk was then discarded and the membrane was incubated with primary antibody. Protein levels of Bax, Bcl-2, cleaved caspase-3, and cleaved PARP were detected using manufacturer recommended dilutions (Cell Signaling Technology, Danvers, Mass.) using rabbit anti-mouse monoclonal antibody against BAX and Bcl-2, and rabbit anti-mouse cleaved caspase-3 (Asp175), monoclonal antibody and a rabbit polyclonal anti-cleaved PARP (214/215) cleavage site specific antibody. The membrane was washed five times and then incubated in secondary antibody conjugated to horseradish peroxidase for 45 minutes at room temperature. Membranes were developed using Western Lighting Chemiluminescence Reagent Plus (PerkinElmer Life Sciences, Boston, Mass.) and quantified by densitometry scanning of specific bands (20 kDa for Bax, 26 kDa for Bcl-2, 17/19 kDa for cleaved caspase-3, and 89 kDa for cleaved PARP) that were adjusted for loading using β-actin expression level detected by specific secondary antibody (Sigma, St. Louis, Mo.).

[5] = Hypochlorite-induced chlorination of 2-aminopurine (2-AP)
Text: (§2) 2-AP in PBS was exposed to hypochlorite and fluorescence spectra recorded between 360-390 nm with the emission maximum at 374 nm. The % change in 2-AP calculated.

[6] = γ-Radiation-induced chlorination of 2-AP
Text: as §2
To determine whether radiation induces nucleobase chlorination, we used the same system as above, namely 2-AP fluorescence (FIG. 19A).

[7] = test system: AOE gene expression (HO-1, NQO1, GST); test: AOE gene expression in lung in the pharmacokinetic study; assay type: in vivo, mouse; conditions: 100 mg SDG/Kg oral; p<0.05
Procedure: After selecting the 100 mg/kg dose as a dose that induces significant AOE expression while allowing for SDG to be detected in circulation, a pharmacokinetic study was performed to determine bioavailability and biological effects in target tissues (i.e., lung). Blood samples as well as tissues (lung, brain, liver, kidneys, spleen) were collected at 15 min, 30 min, and 1, 2, 4, 6, 8, 12 hours. SDG levels were determined as above in plasma and lung (FIGS. 41A-C). A single dose of 100 mg SDG/Kg was well absorbed and intact SDG was detectable in the circulation up to 6 hours post administration (FIG. 41A) and in flushed, blood-free lung tissues for 4 hours (FIG. 41B). […] The observed gene expression increase correlated with an increase in protein levels determined by western blotting (not shown). […] The use of SDG in human therapy is thus greatly facilitated and the toxicity risk is unlikely. Therefore a dose of 50-100 mg/Kg (1 or 2 mg SDG per day) is sufficient to induce the anticipated protective effects in target tissues and can be used for further study.

COc1cc(C[C@@H](CO[C@@H]2O[C@H](CO)[C@@H](O)[C@H](O)[C@H]2O)[C@H](CO[C@@H]2O[C@H](CO)[C@@H](O)[C@H](O)[C@H]2O)Cc2ccc(O)c(OC)c2)ccc1O [SDG, secoisolariciresinol diglucoside]
Colony forming ability, compound alone ([1]; SDG 10-50 μM alone, all three cell types, vs untreated control): did not elicit any adverse effect | Surviving fraction ([1]; SDG prior to irradiation, epithelial and endothelial cells (FIGS. 7A, 7B)): enhanced significantly | SDG concentration giving maximum protection against radiation-induced loss in clonogenicity ([1]; fibroblasts, 6 h pre-treatment): 50 µM | Radiation-induced comet tail length ([2]; SDG 50 μM pre-treatment at all time intervals, all three cell types): significantly inhibited | Pre-treatment time giving maximum protection against radiation-induced tail moment ([2]; SDG 50 μM, all cell types): 6 h | γ-H2AX positive cells [3]: 22.7%±2.17 | Bax protein levels [4]: trended towards decreased levels | Bcl-2 protein levels [4]: trended towards decreased levels | Cleaved PARP levels ([4]; 6, 24, 48 hours post-IR): trended towards decreased levels | Cleaved caspase-3 levels ([4]; 6, 24, 48 hours post-IR): trended towards decreased levels | Hypochlorite-induced decrease of 2-AP fluorescence, pre-treatment ([5]; 10 μM hypochlorite, SDG pre-treatment 60 seconds): prevented | Hypochlorite-induced 2-AP modification, post-treatment ([5]; SDG added +15 to +300 seconds after ClO^−): significant recovery | γ-radiation-induced decrease in 2-AP fluorescence intensity [6]: prevented | AOE gene expression levels (HO-1, NQO1, GST) over baseline [7]: significantly elevated
